# Test results reported in paper PMC8815882, “Screening the pandemic response box identified benzimidazole carbamates, Olorofim and ravuconazole as promising drug candidates for the treatment of eumycetoma” (PLoS Neglected Tropical Diseases, 2022).
# Read-outs that look alike come from different tables or passages of the source.
# Tested on: M. mycetomatis genome strain MM55
# Assay: CLSI M38-A2 based in vitro susceptibility screening (XTT or resazurin), growth at fixed concentration
# Assay type: cell-based, Madurella mycetomatis
# Settings: Madurella mycetomatis; for Percent fungal survival at 100 µM: read-out: Percentage survival at 100um, 100 uM A (second replicate column)
# [1] = mean of three replicates, read-out: Percentage survival at 25um, 25 uM mean
# [2] = replicate A, read-out: Percentage survival at 25um, 25 um A
# [3] = replicate B, read-out: Percentage survival at 25um, 25 uM B
# [4] = replicate C, read-out: Percentage survival at 25um, 25 uM C
# [5] = first replicate column, read-out: Percentage survival at 100um, 100 uM A
# [6] = mean of three replicates, read-out: Percentage survival at 100um, 100 uM mean
# [7] = second replicate column, read-out: Percentage survival at 100um, 100 uM A
# [8] = third replicate column, read-out: Percentage survival at 100um, 100 uM A
# [9] = mean of three, M. mycetomatis MM55, read-out: Percentage survival at 25um, 25 uM mean
# [10] = replicate A, M. mycetomatis MM55, read-out: Percentage survival at 25um, 25 um A
# [11] = replicate B, M. mycetomatis MM55, read-out: Percentage survival at 25um, 25 uM B
# [12] = replicate C, M. mycetomatis MM55, read-out: Percentage survival at 25um, 25 uM C
# [13] = mean of three, M. mycetomatis MM55, read-out: Percentage survival at 100um, 100 uM mean
# [14] = replicate 1, M. mycetomatis MM55, read-out: Percentage survival at 100um, 100 uM A (first replicate column)
# [15] = replicate 2, M. mycetomatis MM55
# [16] = replicate 3, M. mycetomatis MM55, read-out: Percentage survival at 100um, 100 uM A (third replicate column)
smiles,measurement,setting,value
Cc1[nH]c2ccccc2c1CC(=O)N[C@@H](Cc1ccccc1)C(=O)N(C)c1ccccc1 [MMV1580798],activity at 25 µM,[1],85.4%
same,activity at 25 µM,[2],85.6%
same,activity at 25 µM,[3],92.9%
same,activity at 25 µM,[4],77.6%
same,activity at 100 µM,[5],87.3%
same,activity at 100 µM,[6],82.4%
same,activity at 100 µM,[7],79.6%
same,activity at 100 µM,[8],80.5%
COc1ccc(COc2cc3oc(=O)c4cc(C(C)O)ccc4c3cc2OC)cc1 (stereo not shown) [MMV1580799],activity at 25 µM,[1],95.8%
same,activity at 25 µM,[2],100%
same,activity at 25 µM,[3],103%
same,activity at 25 µM,[4],84.1%
same,activity at 100 µM,[5],90.3%
same,activity at 100 µM,[6],91.5%
same,activity at 100 µM,[7],87.1%
same,activity at 100 µM,[8],97%
N#Cc1cc([N+](=O)[O-])ccc1Oc1ccccc1Cl [MMV1580800],activity at 25 µM,[1],66.8%
same,activity at 25 µM,[2],54.7%
same,activity at 25 µM,[3],82.6%
same,activity at 25 µM,[4],63.1%
same,activity at 100 µM,[5],3.13%
same,activity at 100 µM,[6],19.4%
same,activity at 100 µM,[7],3.43%
same,activity at 100 µM,[8],51.7%
Cc1nc2ccc(Cl)cc2c(-c2ccccc2)c1CC(=O)O [MMV1580801],activity at 25 µM,[1],86.1%
same,activity at 25 µM,[2],87.4%
same,activity at 25 µM,[3],94.3%
same,activity at 25 µM,[4],76.7%
same,activity at 100 µM,[5],85.8%
same,activity at 100 µM,[6],83.4%
same,activity at 100 µM,[7],76.8%
same,activity at 100 µM,[8],87.5%
Nc1nc(NC2Cc3ccc(F)cc3C2)nc(N2CCCCC2)n1 (stereo not shown) [MMV1580839],activity at 25 µM,"mean of replicates, read-out: Percentage survival at 25um, 25 uM mean",40.6%
same,activity at 25 µM,[2],58.8%
same,activity at 25 µM,[3],53.9%
same,activity at 25 µM,[4],9.06%
same,activity at 100 µM,"mean of replicates, read-out: Percentage survival at 100um, 100 uM mean",1.55%
same,activity at 100 µM,"replicate 1, read-out: Percentage survival at 100um, 100 uM A",-0.246%
same,activity at 100 µM,"replicate 2, read-out: Percentage survival at 100um, 100 uM A",0.453%
same,activity at 100 µM,"replicate 3, read-out: Percentage survival at 100um, 100 uM A",4.45%
O=C(Nc1ccc(Cl)c(C(F)(F)F)c1)C(CCCl)C(=O)Nc1ccc(Cl)c(C(F)(F)F)c1 [MMV1580840],activity at 25 µM,[9],56.9%
same,activity at 25 µM,[10],58.8%
same,activity at 25 µM,[11],55.1%
same,activity at 25 µM,[12],56.9%
same,activity at 100 µM,[13],36.8%
same,activity at 100 µM,[14],0.352%
same,Percent fungal survival at 100 µM,[15],58.3%
same,activity at 100 µM,[16],51.8%
O=S(=O)(NCB(O)O)c1cc2c(Cl)ccc(Cl)c2s1 [MMV1580841],activity at 25 µM,"mean, read-out: Percentage survival at 25um, 25 uM mean",69.4%
same,activity at 25 µM,[2],79.1%
same,activity at 25 µM,[3],74.7%
same,activity at 25 µM,[4],54.3%
same,activity at 100 µM,"mean, read-out: Percentage survival at 100um, 100 uM mean",70.2%
same,activity at 100 µM,"replicate (first column), read-out: Percentage survival at 100um, 100 uM A",88.2%
same,activity at 100 µM,"replicate (second column), read-out: Percentage survival at 100um, 100 uM A",69.4%
same,activity at 100 µM,"replicate (third column), read-out: Percentage survival at 100um, 100 uM A",53%
Clc1cc2nc(C3CCNCC3)n(Cc3ccc(CNCCc4cnc[nH]4)cc3)c2cc1Cl [MMV1580842],activity at 25 µM,[9],86.1%
same,activity at 25 µM,[10],92.3%
same,activity at 25 µM,[11],94.9%
same,activity at 25 µM,[12],71.1%
same,activity at 100 µM,[13],66.3%
same,activity at 100 µM,[14],60.7%
same,Percent fungal survival at 100 µM,[15],74.3%
same,activity at 100 µM,[16],64.1%
C[Si]1(C)CCN(Cc2cc(-c3ccc(Cl)cc3)n(-c3ccc(Cl)cc3)n2)CC1 [MMV1580843],activity at 25 µM,"mean of replicates, MM55, read-out: Percentage survival at 25um, 25 uM mean",67.7%
same,activity at 25 µM,"replicate A, MM55, read-out: Percentage survival at 25um, 25 um A",56.5%
same,activity at 25 µM,"replicate B, MM55, read-out: Percentage survival at 25um, 25 uM B",86.3%
same,activity at 25 µM,"replicate C, MM55, read-out: Percentage survival at 25um, 25 uM C",60.2%
same,activity at 100 µM,"mean of replicates, MM55, read-out: Percentage survival at 100um, 100 uM mean",57.4%
same,activity at 100 µM,"replicate 1, MM55, read-out: Percentage survival at 100um, 100 uM A",52%
same,activity at 100 µM,"replicate 2, MM55, read-out: Percentage survival at 100um, 100 uM A",70.7%
same,activity at 100 µM,"replicate 3, MM55, read-out: Percentage survival at 100um, 100 uM A",49.4%
CCc1nc(N)nc(N)c1C#CC(C)c1cc(OC)cc(-c2ccncc2)c1 (stereo not shown) [MMV1580844],activity at 25 µM,[9],31.6%
same,activity at 25 µM,[10],86.9%
same,activity at 25 µM,[11],5.16%
same,activity at 25 µM,[12],2.83%
same,activity at 100 µM,[13],-1.56%
same,activity at 100 µM,[14],-1.7%
same,Percent fungal survival at 100 µM,[15],-1.01%
same,activity at 100 µM,[16],-1.98%
CC(=O)N[C@H](C)C(=O)N[C@H](Cc1ccccc1)C(=O)O [MMV1580845],activity at 25 µM,[1],87.9%
same,activity at 25 µM,[2],86.4%
same,activity at 25 µM,[3],86.8%
same,activity at 25 µM,[4],90.5%
same,activity at 100 µM,[6],86.9%
same,activity at 100 µM,"replicate 1, read-out: Percentage survival at 100um, 100 uM A (first replicate column)",88.3%
same,Percent fungal survival at 100 µM,replicate 2,84.1%
same,activity at 100 µM,"replicate 3, read-out: Percentage survival at 100um, 100 uM A (third replicate column)",88.3%
